Source: PubChem BioAssay (NCI)
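Test compounds were applied to cells in 96-well plates for 48 hours at 5 doses. TGI denotes the concentration required for complete inhibition of growth.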

What was measured:
Assay in all cases: NCI tumour cell line growth inhibition, 48 h
[1] = system: P388 leukemia
[2] = system: P388/ADR leukemia
[3] = system: SN12K1 renal

With `CN(CO)c1nc(N(C)CO)nc(N(C)CO)n1` as the molecule, how does the TGI [1] read?
The TGI was 23.8 µM.

And the TGI [2]?
Its TGI is 69.1 µM.

What about the TGI [3] of the same molecule?
The TGI was 14.1 µM.
